Test results from patent publication US9932570B2 (priority 2015, dated 2018).
Non-standard residues stand in square brackets, D forms with d. Residues, ends and D or L forms follow the SMILES beside them. *: point of attachment. AFC = O=c1cc(C(F)(F)F)c2ccc(N*)cc2o1; AMC = Cc1cc(=O)oc2cc(N*)ccc12

System: plasma proteases

| SMILES | Cleavage / fluorescence in plasma in the absence of LF | Specificity for LF | Hydrolysis in plasma without LF |
| --- | --- | --- | --- |
| CC(=O)N[C@@H](CCCNC(=N)N)C(=O)N[C@H](CCCNC(=N)N)C(=O)N[C@H](CCCCN)C(=O)N[C@H](CCCCN)C(=O)N[C@H](C(=O)N[C@@H](Cc1ccc(O)cc1)C(=O)N1CCC[C@H]1C(=O)Nc1ccc2c(C(F)(F)F)cc(=O)oc2c1)C(C)C [LBL 10108] (Ac-R[dR][dK][dK]VYP-{AFC}) | neither peptide was cleaved | – | – |
| CC(=O)N[C@@H](CCCNC(=N)N)C(=O)N[C@@H](CCCNC(=N)N)C(=O)N[C@@H](CCCCN)C(=O)N[C@@H](CCCCN)C(=O)N[C@H](C(=O)N[C@@H](Cc1ccc(O)cc1)C(=O)N1CCC[C@H]1C(=O)Nc1ccc2c(C)cc(=O)oc2c1)C(C)C [LBL 10079] (Ac-RRKKVYP-{AMC}) | dramatic increase in fluorescence | non-specifically cleaved by plasma proteases | – |
| CC(=O)N[C@H](CCCNC(=N)N)C(=O)N[C@H](CCCNC(=N)N)C(=O)N[C@H](CCCCN)C(=O)N[C@H](CCCCN)C(=O)N[C@H](C(=O)N[C@@H](Cc1ccc(O)cc1)C(=O)N1CCC[C@H]1C(=O)Nc1ccc2c(C)cc(=O)oc2c1)C(C)C [LBL 10097] (Ac-[dR][dR][dK][dK]VYP-{AMC}) | minimal increase in hydrolysis | specific for LF | minimal increase in hydrolysis |
| CC(=O)N[C@@H](CCCNC(=N)N)C(=O)N[C@H](CCCNC(=N)N)C(=O)N[C@H](CCCCN)C(=O)N[C@H](CCCCN)C(=O)N[C@H](C(=O)N[C@@H](Cc1ccc(O)cc1)C(=O)N1CCC[C@H]1C(=O)Nc1ccc2c(C)cc(=O)oc2c1)C(C)C [LBL 10081] (Ac-R[dR][dK][dK]VYP-{AMC}) | minimal increase in hydrolysis | specific for LF | minimal increase in hydrolysis |
